One may read the EC50 as the concentration that produces a half-maximal response.

Consider 1 substance from patent US5589568A (priority 1994, dated 1996).

Where no end group is shown, it is not given here.

For one data set, the target named is Gs (Homo sapiens, UniProt P63092). Put plainly: steady state GTPase activity of Gs. The format is biochemical. The settings on record: Table IV; read-out: Gs af. (apparent affinity, estimated by EC50 of GTPase activity). An outline of the steps: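 Steady-state GTP hydrolysis by Gs was run in buffer without detergent, with 1.1 mM MgSO4 and the specified nucleotide, and free Mg^2+ set with EDTA buffers where needed. Activity is expressed as molar turnover number. Apparent affinity and efficacy were estimated from the EC50 and the maximal turnover number of GTPase activity.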
Gs, sequence (P63092 whole entry): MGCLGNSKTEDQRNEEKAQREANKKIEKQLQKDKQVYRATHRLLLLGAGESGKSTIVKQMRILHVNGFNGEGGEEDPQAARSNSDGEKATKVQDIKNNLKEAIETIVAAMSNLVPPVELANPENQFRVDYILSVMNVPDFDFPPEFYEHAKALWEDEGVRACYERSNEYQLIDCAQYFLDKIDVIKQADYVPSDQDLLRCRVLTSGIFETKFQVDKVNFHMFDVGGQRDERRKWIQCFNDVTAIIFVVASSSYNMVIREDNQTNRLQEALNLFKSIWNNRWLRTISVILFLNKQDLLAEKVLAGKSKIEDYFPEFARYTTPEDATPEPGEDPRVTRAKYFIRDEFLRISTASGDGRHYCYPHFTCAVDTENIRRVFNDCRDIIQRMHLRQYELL

The target of the next data set is T1, Go (Bos taurus, UniProt P08239).
T1 construct: proteins were extracted from bovine cerebral cortical membranes; from tissue; host or cells: bovine brain (cerebral cortical membranes)
T1 sequence (P08239 2-354 limits assumed): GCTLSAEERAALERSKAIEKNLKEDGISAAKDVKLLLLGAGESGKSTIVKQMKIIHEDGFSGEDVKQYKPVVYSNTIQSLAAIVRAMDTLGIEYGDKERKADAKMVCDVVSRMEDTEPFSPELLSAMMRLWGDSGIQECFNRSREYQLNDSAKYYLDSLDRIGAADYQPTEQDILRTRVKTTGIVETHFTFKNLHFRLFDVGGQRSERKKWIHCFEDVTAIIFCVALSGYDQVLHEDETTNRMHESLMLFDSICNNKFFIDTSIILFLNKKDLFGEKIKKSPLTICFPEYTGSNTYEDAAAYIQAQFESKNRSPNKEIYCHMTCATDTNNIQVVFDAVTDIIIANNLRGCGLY
T1 sequence (P62871 2-340 partner limits assumed): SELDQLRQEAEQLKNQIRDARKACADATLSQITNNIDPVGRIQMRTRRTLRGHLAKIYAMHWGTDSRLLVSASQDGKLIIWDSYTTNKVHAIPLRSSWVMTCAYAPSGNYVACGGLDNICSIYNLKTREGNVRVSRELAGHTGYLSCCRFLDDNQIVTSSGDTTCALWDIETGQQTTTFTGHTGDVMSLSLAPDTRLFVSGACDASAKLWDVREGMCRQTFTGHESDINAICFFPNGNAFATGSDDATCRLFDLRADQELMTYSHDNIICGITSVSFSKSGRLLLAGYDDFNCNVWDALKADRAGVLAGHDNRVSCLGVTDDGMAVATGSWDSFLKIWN
T1 sequence (P63212 2-68 partner limits assumed): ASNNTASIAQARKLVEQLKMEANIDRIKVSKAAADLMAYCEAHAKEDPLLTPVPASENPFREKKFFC
As to the kind of experiment: steady state GTPase activity of Go in phospholipid vesicles. Format: biochemical, bovine.

Data set [1] in a line: lytic capacity / toxicity of mastoparan-based peptides.

Method for Go: G proteins were reconstituted into phospholipid vesicles composed of dioleoyl-PC/bovine brain PS/1-palmitoyl,2-oleoyl-PE (3:4:3) as reported previously by Higashijima et al., 1988, incorporated herein by reference.
Unless noted otherwise, assays of steady state GTP hydrolysis and of the binding and dissociation of guanine nucleotides were carried out in the buffer described previously, but without detergent and with 1.1 mM MgSO4 and the nucleotide specified in the text. When necessary, the concentration of free Mg^2+ was adjusted using EDTA buffers as described previously by Higashijima, 1987, and incorporated herein by reference.
Apparent affinity (af.) and apparent efficacy (ef.) were estimated by EC50 and maximum turnover number of GTPase activity.

For INLKALAALKKALL-NH2 [ER25], the EC50 at Gs and at Go was 10 to 30 µM throughout. In addition, the “toxicity (in words)” value in data set [1] is given as “least toxic”.
